Tests used:
[1] = target: T1, Furin (108-574-Tev-Flag-His) enzyme (Homo sapiens, UniProt P09958); experiment: Furin enzyme assay; type: biochemical; settings: for IC50: read-out: furin enzyme pIC50 (converted)
T1 construct: Furin (108-574-Tev-Flag-His) enzyme was expressed and purified from CHO cells; TEV cleavage site (C); FLAG (C); His (C); made in house; host or cells: CHO cells
Method in brief: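 Compounds ran as 11-point threefold dilutions (0.00017–10 μM final) against 40 pM furin, purified from CHO cells, for 2 h at room temperature. Buffer: 100 mM HEPES pH7.5 with 1 mM CaCl2 and 0.005% Triton X-100. Envision readout. Four-parameter curve gives pXC50.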

[2] = target: T2, furin (endogenous protease) in U20S cells (Homo sapiens, UniProt P09958); experiment: Furin cell-based assay (image-based, Golgi-targeted GFP with BMP10 furin/PCSK cleavage site); settings: 24-hour incubation, read-out: furin golgi cell pXC50 (converted);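 further: Read-out is mean GFP fluorescence of Golgi puncta per cell by high-content imaging, retained when furin inhibited, over an eleven-point 0.00017–10 µM series, four-parameter fit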
T2 construct: the endogenous protease cleaves GFP; endogenous in cells; host or cells: U2OS cells transduced with a BacMam reporter
T2 sequence (P09958 108-794): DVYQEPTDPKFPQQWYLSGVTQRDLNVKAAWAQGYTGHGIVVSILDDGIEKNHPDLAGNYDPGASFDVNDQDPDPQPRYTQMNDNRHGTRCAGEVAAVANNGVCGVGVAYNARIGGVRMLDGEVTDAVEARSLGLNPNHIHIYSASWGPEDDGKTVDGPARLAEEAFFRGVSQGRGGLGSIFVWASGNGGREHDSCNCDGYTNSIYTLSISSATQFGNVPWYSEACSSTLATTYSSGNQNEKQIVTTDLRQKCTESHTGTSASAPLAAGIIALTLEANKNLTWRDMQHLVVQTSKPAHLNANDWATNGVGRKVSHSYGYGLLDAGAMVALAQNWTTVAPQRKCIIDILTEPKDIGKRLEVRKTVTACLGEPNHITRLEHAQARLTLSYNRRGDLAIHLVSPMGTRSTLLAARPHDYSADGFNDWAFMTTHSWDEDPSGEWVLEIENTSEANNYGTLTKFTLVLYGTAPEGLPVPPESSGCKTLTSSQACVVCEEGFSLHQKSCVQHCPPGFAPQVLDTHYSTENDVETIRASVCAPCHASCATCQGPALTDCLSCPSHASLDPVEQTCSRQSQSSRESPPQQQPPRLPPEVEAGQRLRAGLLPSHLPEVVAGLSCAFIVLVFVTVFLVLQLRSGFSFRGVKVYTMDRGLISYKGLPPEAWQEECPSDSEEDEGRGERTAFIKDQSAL

T1 sequence (P09958 108-574): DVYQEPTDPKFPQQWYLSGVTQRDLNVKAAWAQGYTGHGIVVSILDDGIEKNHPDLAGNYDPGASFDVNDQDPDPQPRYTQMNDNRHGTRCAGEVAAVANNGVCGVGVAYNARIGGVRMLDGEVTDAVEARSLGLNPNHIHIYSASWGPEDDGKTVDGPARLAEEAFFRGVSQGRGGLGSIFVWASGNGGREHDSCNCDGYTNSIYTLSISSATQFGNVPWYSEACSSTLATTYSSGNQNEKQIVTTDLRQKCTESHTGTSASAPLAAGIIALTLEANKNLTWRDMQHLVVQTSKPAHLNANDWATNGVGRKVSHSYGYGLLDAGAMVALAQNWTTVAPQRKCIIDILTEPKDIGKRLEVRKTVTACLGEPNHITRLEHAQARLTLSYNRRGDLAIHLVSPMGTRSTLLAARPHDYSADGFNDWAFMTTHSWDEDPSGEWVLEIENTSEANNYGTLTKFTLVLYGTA

furin enzyme pIC50 [1] | EC50 [2] [nM] | IC50 [1] [nM] | Structure (SMILES)
10.7 | 10 |  | CCN1CCN(c2ncc(Oc3cc(CN4CCC(CC(=O)O)CC4)cc(-c4cc(Cl)cc(Cl)c4)n3)cn2)CC1 [Example 234, 2-(1-((2-(3,5-Dichlorophenyl)-6-((2-(4-ethylpiperazin-1-yl)pyrimidin-5-yl)oxy)pyridin-4-yl)methyl)piperidin-4-yl)acetic acid]
9.2 | 15.8 |  | CC(C)N1CCN(c2ncc(Oc3cc(CN4CCC(CC(=O)O)CC4)cc(-c4cc(Cl)cc(Cl)c4)n3)cn2)CC1 [Example 235, 2-(1-((2-(3,5-Dichlorophenyl)-6-((2-(4-isopropylpiperazin-1-yl)pyrimidin-5-yl)oxy)pyridin-4-yl)methyl)piperidin-4-yl)acetic acid]
8.5 | 39.8 |  | O=C(O)CC1CCN(Cc2cc(Oc3cnc(N4CCN(CCF)CC4)nc3)nc(-c3cc(Cl)cc(Cl)c3)c2)CC1 [Example 236, 2-(1-((2-(3,5-Dichlorophenyl)-6-((2-(4-(2-fluoroethyl)piperazin-1-yl)pyrimidin-5-yl)oxy)pyridin-4-yl)methyl)piperidin-4-yl)acetic acid]
8.7 | 3.16 |  | CC(O)CCN1CCN(c2ncc(Oc3cc(CN4CCC(CC(=O)O)CC4)cc(-c4cc(Cl)cc(Cl)c4)n3)cn2)CC1 (stereo not shown) [Example 237, 2-(1-((2-(3,5-Dichlorophenyl)-6-((2-(4-(3-hydroxybutyl)piperazin-1-yl)pyrimidin-5-yl)oxy)pyridin-4-yl)methyl)piperidin-4-yl)acetic acid]
9.8 | 10 |  | CC(CCO)N1CCN(c2ncc(Oc3cc(CN4CCC(CC(=O)O)CC4)cc(-c4cc(Cl)cc(Cl)c4)n3)cn2)CC1 (stereo not shown) [Example 238, 2-(1-((2-(3,5-Dichlorophenyl)-6-((2-(4-(4-hydroxybutan-2-yl)piperazin-1-yl)pyrimidin-5-yl)oxy)pyridin-4-yl)methyl)piperidin-4-yl)acetic acid]
8 | 25.1 |  | CNCCC(C)N1CCN(c2ncc(Oc3cc(CN4CCC(CC(=O)O)CC4)cc(-c4cc(Cl)cc(Cl)c4)n3)cn2)CC1 (stereo not shown) [Example 239, 2-(1-((2-(3,5-Dichlorophenyl)-6-((2-(4-(4-(methylamino)butan-2-yl)piperazin-1-yl)pyrimidin-5-yl)oxy)pyridin-4-yl)methyl)piperidin-4-yl)acetic acid]
8.4 | 6.31 |  | CC(CCN(C)C)N1CCN(c2ncc(Oc3cc(CN4CCC(CC(=O)O)CC4)cc(-c4cc(Cl)cc(Cl)c4)n3)cn2)CC1 (stereo not shown) [Example 240, 2-(1-((2-(3,5-Dichlorophenyl)-6-((2-(4-(4-(dimethylamino)butan-2-yl)piperazin-1-yl)pyrimidin-5-yl)oxy)pyridin-4-yl)methyl)piperidin-4-yl)acetic acid]
8.6 | 63.1 |  | CNC(=O)OCCN1CCN(c2ncc(Oc3cc(CN4CCC(CC(=O)O)CC4)cc(-c4cc(Cl)cc(Cl)c4)n3)cn2)CC1 [Example 241, 2-(1-((2-(3,5-Dichlorophenyl)-6-((2-(4-(2-((methylcarbamoyl)oxy)ethyl)piperazin-1-yl)pyrimidin-5-yl)oxy)pyridin-4-yl)methyl)piperidin-4-yl)acetic acid]
8.7 | 25.1 |  | CS(=O)(=O)CCCN1CCN(c2ccc(Oc3cc(CN4CCC(CC(=O)O)CC4)cc(-c4cc(Cl)cc(Cl)c4)n3)cn2)CC1 [Example 243, 2-(1-((2-(3,5-dichlorophenyl)-6-((6-(4-(3-(methylsulfonyl)propyl)piperazin-1-yl)pyridin-3-yl)oxy)pyridin-4-yl)methyl)piperidin-4-yl)acetic acid]
8.3 | 20 |  | COCCN1CCN(c2ccc(Oc3cc(CN4CCC(CC(=O)O)CC4)cc(-c4cc(Cl)cc(Cl)c4)n3)cn2)CC1 [Example 244, 2-(1-((2-(3,5-dichlorophenyl)-6-((6-(4-(2-methoxyethyl)piperazin-1-yl)pyridin-3-yl)oxy)pyridin-4-yl)methyl)piperidin-4-yl)acetic acid]
10 | 3.98 |  | COCCN1CCN(c2ncc(Oc3cc(CN4CCC(CNC(C)=O)CC4)cc(-c4cc(Cl)cc(Cl)c4)n3)cn2)CC1 [Example 245, N-((1-((2-(3,5-dichlorophenyl)-6-((2-(4-(2-methoxyethyl)piperazin-1-yl)pyrimidin-5-yl)oxy)pyridin-4-yl)methyl)piperidin-4-yl)methyl)acetamide]
8.9 | 15.8 |  | NS(=O)(=O)CCCN1CCN(c2ncc(Oc3cc(CN4CCC(CC(=O)O)CC4)cc(-c4cc(Cl)cc(Cl)c4)n3)cn2)CC1 [Example 246, 2-(1-((2-(3,5-dichlorophenyl)-6-((2-(4-(3-sulfamoylpropyl)piperazin-1-yl)pyrimidin-5-yl)oxy)pyridin-4-yl)methyl)piperidin-4-yl)acetic acid]
8.5 | 31.6 |  | COCCN1CCN(c2ncc(Oc3cc(CN4CCC(CC(=O)O)CC4)cc(-c4cc(Cl)cc(Cl)c4)n3)cn2)CC1 [Example 247, 2-(1-((2-(3,5-dichlorophenyl)-6-((2-(4-(2-methoxyethyl)piperazin-1-yl)pyrimidin-5-yl)oxy)pyridin-4-yl)methyl)piperidin-4-yl)acetic acid]
 | 25.1 | 0.0316 | CNC(=O)OCC1CCN(Cc2cc(Oc3cnc(N4CCN(CCC(=O)O)CC4)nc3)nc(-c3cc(Cl)cc(Cl)c3)c2)CC1 [Example 248, 3-(4-(5-((6-(3,5-dichlorophenyl)-4-((4-(((methylcarbamoyl)oxy)methyl)piperidin-1-yl)methyl)pyridin-2-yl)oxy)pyrimidin-2-yl)piperazin-1-yl)propanoic acid]
9.1 | 12.6 |  | CC(=O)NCC1CCN(Cc2cc(Oc3ccc(N4CCN(CCCC(=O)O)CC4)nc3)nc(-c3cc(Cl)cc(Cl)c3)c2)CC1 [Example 249, 4-(4-(5-((4-((4-(acetamidomethyl)piperidin-1-yl)methyl)-6-(3,5-dichlorophenyl)pyridin-2-yl)oxy)pyridin-2-yl)piperazin-1-yl)butanoic acid]
 | 5.01 | < 0.158 | CC(=O)NCC1CCN(Cc2cc(Oc3ccc(N4CCN(CCCS(C)(=O)=O)CC4)nc3)nc(-c3cc(Cl)cc(Cl)c3)c2)CC1 [Example 251, N-((1-((2-(3,5-dichlorophenyl)-6-((6-(4-(3-(methylsulfonyl)propyl)piperazin-1-yl)pyridin-3-yl)oxy)pyridin-4-yl)methyl)piperidin-4-yl)methyl)acetamide]
8.5 | 31.6 |  | NS(=O)(=O)CCCN1CCN(c2ccc(Oc3cc(CN4CCC(CC(=O)O)CC4)cc(-c4cc(Cl)cc(Cl)c4)n3)cn2)CC1 [Example 252, 2-(1-((2-(3,5-dichlorophenyl)-6-((6-(4-(3-sulfamoylpropyl)piperazin-1-yl)pyridin-3-yl)oxy)pyridin-4-yl)methyl)piperidin-4-yl)acetic acid]
9.7 | 2.51 |  | CC(=O)NCC1CCN(Cc2cc(Oc3cnc(N4CCN(CCCS(N)(=O)=O)CC4)nc3)nc(-c3cc(Cl)cc(Cl)c3)c2)CC1 [Example 253, N-((1-((2-(3,5-dichlorophenyl)-6-((2-(4-(3-sulfamoylpropyl)piperazin-1-yl)pyrimidin-5-yl)oxy)pyridin-4-yl)methyl)piperidin-4-yl)methyl)acetamide]
8.7 | 3.16 |  | CNC(=O)NCC1CCN(Cc2cc(Oc3ccc(N4CCN(CCOC)CC4)nc3)nc(-c3cc(Cl)cc(Cl)c3)c2)CC1 [Example 254, 1-((1-((2-(3,5-dichlorophenyl)-6-((6-(4-(2-methoxyethyl)piperazin-1-yl)pyridin-3-yl)oxy)pyridin-4-yl)methyl)piperidin-4-yl)methyl)-3-methylurea]
9.5 | 6.31 |  | CNC(=O)NCC1CCN(Cc2cc(Oc3ccc(N4CCN(CCCS(C)(=O)=O)CC4)nc3)nc(-c3cc(Cl)cc(Cl)c3)c2)CC1 [Example 255, 1-((1-((2-(3,5-dichlorophenyl)-6-((6-(4-(3-(methylsulfonyl)propyl)piperazin-1-yl)pyridin-3-yl)oxy)pyridin-4-yl)methyl)piperidin-4-yl)methyl)-3-methylurea]
9.5 | 15.8 |  | CNC(=O)NCC1CCN(Cc2cc(Oc3cnc(N4CCN(CCC(=O)O)CC4)nc3)nc(-c3cc(Cl)cc(Cl)c3)c2)CC1 [Example 256, 3-(4-(5-((6-(3,5-dichlorophenyl)-4-((4-((3-methylureido)methyl)piperidin-1-yl)methyl)pyridin-2-yl)oxy)pyrimidin-2-yl)piperazin-1-yl)propanoic acid]
10.1 | 5.01 |  | CNC(=O)NCC1CCN(Cc2cc(Oc3cnc(N4CCN(CCCS(C)(=O)=O)CC4)nc3)nc(-c3cc(Cl)cc(Cl)c3)c2)CC1 [Example 257, 1-((1-((2-(3,5-dichlorophenyl)-6-((2-(4-(3-(methylsulfonyl)propyl)piper-1-yl)pyrimidin-5-yl)oxy)pyridin-4-yl)methyl)piperidin-4-yl)methyl)-3-methylurea]

Structure (SMILES) | furin enzyme pIC50 [1] | EC50 [2] [nM] | IC50 [1] [nM]
COCCN1CCN(c2ccc(Oc3cc(CN4CCC(CNC(C)=O)CC4)cc(-c4cc(Cl)cc(Cl)c4)n3)cn2)CC1 [Example 250, N-((1-((2-(3,5-dichlorophenyl)-6-((6-(4-(2-methoxyethyl)piperazin-1-yl)pyridin-3-yl)oxy)pyridin-4-yl)methyl)piperidin-4-yl)methyl)acetamide] | 8.9 | < 0.794 | 
